The subject of data set [1] is casein kinase 2 α subunit. Briefly: Western blot of casein kinase 2 α subunit protein in kidney tissue of nephritis rats given oligonucleotides. The class given is in vivo, rat. To be noted: 12 μg/day into kidney tissue by Alzet pump from one day before induction to 7th day. As to the method:
This example was carried out for studying the effect of administration of an antisense oligonucleotide against casein kinase 2 α subunit, so as to confirm the utility of the present invention. To rats (Wistar-Kyoto strain, male, body weight 190 to 210 g), rabbit anti-glomerular basement membrane antibody was intravenously administered (0.3 ml/kg) to induce nephritis. […] The nucleic acid molecules of the oligonucleotides were S-oligonucleotides containing phosphorothioate moieties, and a cationic liquid (Polyplus transfection) was used for making the uptake of the oligonucleotide easier. More particularly, the groups used in the experiment were normal group (normal rats to which the antisense oligonucleotide against casein kinase 2 α subunit and the antisense oligonucleotide were not administered, n=8), nephritis control group (nephritis rats to which the antisense oligonucleotide against casein kinase 2 α subunit and the antisense oligonucleotide were not administered, n=8), nephritis+antisense oligonucleotide against casein kinase 2 α subunit-administered group (group of the present invention, nephritis rats to which the antisense oligonucleotide against casein kinase 2 α subunit was administered, n=4), and nephritis+sense oligonucleotide of casein kinase 2 α subunit-administered group (negative control group, nephritis rats to which the sense oligonucleotide of casein kinase 2 α subunit was administered), totally four groups. On the 7th day from the induction, all rats were placed in metabolic cages, and urine excreted during 24 hours was collected and the amount of the urine was measured. The urine was then centrifuged at 3000 rpm for 15 minutes, and the urine protein in the supernatant was measured. Further, after the collection of urine, the kidneys were isolated, proteins were extracted from each kidney tissue by a conventional method, and the proteins (1 mg/ml, 20 μl) were electrophoresed (PAGERUN, ATTO, 40 mA, 84 min) on 12.5% polyacrylamide gel (PAGEL, ATTO). The electrophoresed proteins were blotted (100V, 90 min) on a PVDF membrane (Millipore). The membrane was blocked (Blocking Ace, Dainippon Pharmaceutical, 4° C., 1 hour), and washed three times (10 min) with PBS containing Tween 20. Then the membrane was incubated (at room temperature for 1 hour) with an anti-casein kinase 2 α subunit (originated from goat, Santa cruz, 100-fold diluted) as the primary antibody. […] After the incubation, the amounts of the casein kinase 2 α subunit protein were measured, respectively, using ECL reagent (Amersham). This measurement was carried out by taking photographs of the detected casein kinase 2 so as to make image files of the amount of the casein kinase 2 protein, and digitalizating the image file using a software NIH Image on Macintosh.
Background: In western blotting, separated proteins are transferred to a membrane and probed.

In the next data set the test system is nephritis rat models. The experiment in a line: Nephritis rat model induced by anti-glomerular basement membrane antibody: kidney function markers and kidney pathology. It is filed as in vivo. To be noted: for urine protein: 24-hour urine on 7th day from induction.
[2] abbreviates: oligonucleotide 12 μg/day into kidney tissue, FIG. 2.

In the case of “5′-GTAATCATCTTGATTACCCCA-3′ (chemistry not given here)”, the “Protein Amount Ratio of Casein Kinase 2 α Subunit” value in data set [1] (no-oligonucleotide kidney = 1) is “prominently decreased”; in data set [1] (no-oligonucleotide kidney = 1, listed as Antisense Oligonucleotide), 0.45. For the same molecule, the urine protein entry in the data set on nephritis rat models (setting [2]) is “significantly decreased”.

Take “5′-TGGGGTATCAATCAAGATGATTAC-3′ (chemistry not given here) [negative control]”: the “Protein Amount Ratio of Casein Kinase 2 α Subunit” value in data set [1] (no-oligonucleotide kidney = 1) is recorded as “did not decrease”; in data set [1] (no-oligonucleotide kidney = 1, listed as Sense Oligonucleotide), 1.07. Moreover, the urine protein result with nephritis rat models (setting [2]) is “did not significantly decrease”.

In the case of `Cc1cc(O)c2c(c1)C(=O)c1cc(O)cc(O)c1C2=O` [3-methyl-1,6,8-trihydroxyanthraquinone], the blood creatinine level result in the data set with nephritis rat models (20 mg/l kg body weight intraperitoneally once a day, 14th day from induction, FIG. 6) is recorded as “almost normalized”. In the data set with nephritis rat models (20 mg/l kg body weight intraperitoneally once a day, FIG. 5), the urine protein entry is given as “significantly decreased”. Also, in the data set on nephritis rat models (20 mg/l kg body weight intraperitoneally once a day, hematoxylin-eosin-stained specimens), the “pathological finding of the kidney tissue” value was “improvements in the glomeruli and in the renal tubule interstitium were observed”.

Take `O=c1cc(-c2ccc(O)cc2)oc2cc(O)cc(O)c12` [apigenin]: in the data set with nephritis rat models (apigenin 20 mg/l kg body weight intraperitoneally once a day, FIG. 4), the urine protein result was “significantly decreased”.

These data come from US20080269155A1, “REMEDY OR PREVENTIVE FOR KIDNEY DISEASE AND METHOD OF DIAGNOSING KIDNEY DISEASE” (TORAY INDUSTRIES INC., priority 2002, published 2008).
